Data published in ChEMBL document CHEMBL3085759, “Structure-activity relationship (SAR) and preliminary mode of action studies of 3-substituted benzylthioquinolinium iodide as anti-opportunistic infection agents” (Eur J Med Chem, 2013).

What was measured:
[1] = system: Mycobacterium intracellulare; experiment: Antimicrobial activity against Mycobacterium intracellulare ATCC 23068 by Alamar blue method; type: functional, organism-based
Nakaseomyces glabratus = experiment: Antimicrobial activity against Candida glabrata by Alamar blue method; type: functional, organism-based
Staphylococcus aureus [2] = experiment: Antimicrobial activity against methicillin-resistant Staphylococcus aureus ATCC 33591 by Alamar blue method; type: functional, organism-based
Cryptococcus neoformans = experiment: Antimicrobial activity against Cryptococcus neoformans ATCC 90113 by Alamar blue method; type: functional, organism-based
Candida albicans = experiment: Antimicrobial activity against Candida albicans ATCC 90028 by Alamar blue method; type: functional, organism-based
Pichia kudriavzevii = experiment: Antimicrobial activity against Candida krusei ATCC 6258 by Alamar blue method; type: functional, organism-based
Vero = experiment: Cytotoxicity against african green monkey Vero cells at 10 ug/ml after 48 hrs by Neutral Red dye assay; type: cell-based; settings: chlorocebus sabaeus
Staphylococcus aureus [3] = experiment: Antimicrobial activity against Staphylococcus aureus ATCC 29213 by Alamar blue method; type: functional, organism-based; settings: Staphylococcus aureus, ATCC 29213; for IC50: read-out: IC50
Aspergillus fumigatus = experiment: Antimicrobial activity against Aspergillus fumigatus ATCC 204305 by Alamar blue method; type: functional, organism-based

Row | SMILES | IC50 [1] | MBC [1] | MIC [1] | IC50 (Nakaseomyces glabratus) | MIC (Nakaseomyces glabratus) | IC50 (Staphylococcus aureus [2]) | MBC (Staphylococcus aureus [2]) | MIC (Staphylococcus aureus [2]) | MFC (Cryptococcus neoformans) | MIC (Cryptococcus neoformans) | IC50 (Candida albicans) | MFC (Candida albicans) | MIC (Candida albicans) | IC50 (Pichia kudriavzevii) | MIC (Pichia kudriavzevii) | Activity (Vero) | MBC (Staphylococcus aureus [3]) | MIC (Staphylococcus aureus [3]) | IC50 (Staphylococcus aureus [3]) | IC50 (Aspergillus fumigatus) | further results
1 | N#Cc1ccc(CSc2cc3ccccc3[n+](CCCCCC3CCCCC3)c2)cc1.[I-] | > 20 µg/mL | > 20 µg/mL | > 20 µg/mL | 11 µg/mL | 20 µg/mL | 2.2 µg/mL | 5 µg/mL | 5 µg/mL | 2.5 µg/mL | 2.5 µg/mL | 2.5 µg/mL | 10 µg/mL | 5 µg/mL | 5.7 µg/mL | 10 µg/mL | Non-toxic | 5 µg/mL | 5 µg/mL | 1.8 µg/mL | 8.6 µg/mL | MFC (Nakaseomyces glabratus): 20 µg/mL; IC50 (Cryptococcus neoformans): 0.81 µg/mL; MFC (Pichia kudriavzevii): 10 µg/mL; MFC (Aspergillus fumigatus): 20 µg/mL; MIC (Aspergillus fumigatus): 20 µg/mL
2 | Fc1cccc(CSc2cc3ccccc3[n+](CCCCCC3CCCCC3)c2)c1.[I-] | 6.5 µg/mL | 10 µg/mL | 10 µg/mL | 2.6 µg/mL | 5 µg/mL | 0.37 µg/mL | 1.3 µg/mL | 0.63 µg/mL | 0.63 µg/mL | 0.63 µg/mL | 1.8 µg/mL | 5 µg/mL | 5 µg/mL | 0.49 µg/mL | 1.3 µg/mL | Non-toxic | 1.3 µg/mL | 0.63 µg/mL | 0.44 µg/mL | 5.6 µg/mL | MFC (Nakaseomyces glabratus): 5 µg/mL; MFC (Pichia kudriavzevii): 1.3 µg/mL; MFC (Aspergillus fumigatus): 20 µg/mL; MIC (Aspergillus fumigatus): 10 µg/mL
3 | Fc1ccccc1CSc1cc2ccccc2[n+](CCCCCC2CCCCC2)c1.[I-] | 16 µg/mL | 20 µg/mL | 20 µg/mL | 6.3 µg/mL | 20 µg/mL | 0.74 µg/mL | 2.5 µg/mL | 1.3 µg/mL | 1.3 µg/mL | 1.3 µg/mL | 2.7 µg/mL | 5 µg/mL | 5 µg/mL | 1.4 µg/mL | 2.5 µg/mL | Non-toxic | 2.5 µg/mL | 1.3 µg/mL | 0.73 µg/mL | 6.5 µg/mL | MFC (Nakaseomyces glabratus): 20 µg/mL; IC50 (Cryptococcus neoformans): 0.63 µg/mL; MFC (Pichia kudriavzevii): 2.5 µg/mL; MFC (Aspergillus fumigatus): 20 µg/mL; MIC (Aspergillus fumigatus): 20 µg/mL
4 | CC(C)(C)c1ccc(CSc2cc3ccccc3[n+](CCCCCC3CCCCC3)c2)cc1.[I-] | > 20 µg/mL | > 20 µg/mL | > 20 µg/mL | > 20 µg/mL | > 20 µg/mL | 12 µg/mL | > 20 µg/mL | 20 µg/mL | 10 µg/mL | 1.3 µg/mL | 20 µg/mL | > 20 µg/mL | > 20 µg/mL | 1.2 µg/mL | 20 µg/mL | Non-toxic | > 20 µg/mL | > 20 µg/mL | > 20 µg/mL | > 20 µg/mL | MFC (Nakaseomyces glabratus): > 20 µg/mL; MFC (Pichia kudriavzevii): 20 µg/mL; MFC (Aspergillus fumigatus): > 20 µg/mL; MIC (Aspergillus fumigatus): > 20 µg/mL
5 | FC(F)(F)c1ccccc1CSc1cc2ccccc2[n+](CCCCCC2CCCCC2)c1.[I-] | 3.4 µg/mL | 5 µg/mL | 5 µg/mL | 2.7 µg/mL | 5 µg/mL | 0.22 µg/mL | 1.3 µg/mL | 0.63 µg/mL | 1.3 µg/mL | 0.63 µg/mL | 0.97 µg/mL | 5 µg/mL | 2.5 µg/mL | 0.43 µg/mL | 1.3 µg/mL | Non-toxic | 1.3 µg/mL | 0.31 µg/mL | 0.19 µg/mL | 3.7 µg/mL | IC50 (Cryptococcus neoformans): 0.42 µg/mL; MFC (Aspergillus fumigatus): 10 µg/mL; MIC (Aspergillus fumigatus): 5 µg/mL
6 | [I-].c1ccc(CSc2cc3ccccc3[n+](CCCCCC3CCCCC3)c2)cc1 | 4 µg/mL | 20 µg/mL | 5 µg/mL | 2.9 µg/mL | 5 µg/mL | 0.33 µg/mL | 1.3 µg/mL | 0.63 µg/mL | 0.63 µg/mL | 0.31 µg/mL | 1.6 µg/mL | 5 µg/mL | 5 µg/mL | 0.71 µg/mL | 1.3 µg/mL | Non-toxic | 10 µg/mL | 0.31 µg/mL | 0.23 µg/mL | 5.7 µg/mL | MFC (Nakaseomyces glabratus): 5 µg/mL; MFC (Pichia kudriavzevii): 1.3 µg/mL; MFC (Aspergillus fumigatus): 20 µg/mL; MIC (Aspergillus fumigatus): 10 µg/mL
7 | COc1cccc(CSc2cc3ccccc3[n+](CCCCCC3CCCCC3)c2)c1.[I-] | 3.7 µg/mL | 5 µg/mL | 5 µg/mL | 9.7 µg/mL | 20 µg/mL | 0.33 µg/mL | 1.3 µg/mL | 0.63 µg/mL | 2.5 µg/mL | 0.63 µg/mL | 4.8 µg/mL | 10 µg/mL | 10 µg/mL | 0.88 µg/mL | 2.5 µg/mL | Non-toxic | 1.3 µg/mL | 0.63 µg/mL | 0.28 µg/mL | 10.9 µg/mL | MFC (Nakaseomyces glabratus): 20 µg/mL; IC50 (Cryptococcus neoformans): 0.35 µg/mL; MFC (Pichia kudriavzevii): 2.5 µg/mL; MFC (Aspergillus fumigatus): > 20 µg/mL; MIC (Aspergillus fumigatus): 20 µg/mL
8 | COc1ccccc1CSc1cc2ccccc2[n+](CCCCCC2CCCCC2)c1.[I-] | 3 µg/mL | 5 µg/mL | 5 µg/mL | 8.2 µg/mL | 20 µg/mL | 0.35 µg/mL | 5 µg/mL | 0.63 µg/mL | 2.5 µg/mL | 0.63 µg/mL | 2.8 µg/mL | 5 µg/mL | 5 µg/mL | 0.75 µg/mL | 2.5 µg/mL | Non-toxic | 5 µg/mL | 0.63 µg/mL | 0.31 µg/mL | 9.8 µg/mL | MFC (Nakaseomyces glabratus): 20 µg/mL; IC50 (Cryptococcus neoformans): 0.34 µg/mL; MFC (Pichia kudriavzevii): 2.5 µg/mL; MFC (Aspergillus fumigatus): > 20 µg/mL; MIC (Aspergillus fumigatus): 20 µg/mL
9 | FC(F)(F)c1cccc(CSc2cc3ccccc3[n+](CCCCCC3CCCCC3)c2)c1.[I-] | 7.2 µg/mL | 10 µg/mL | 10 µg/mL | 2.8 µg/mL | 5 µg/mL | 0.56 µg/mL | 2.5 µg/mL | 1.3 µg/mL | 0.63 µg/mL | 0.63 µg/mL | 1.2 µg/mL | 2.5 µg/mL | 2.5 µg/mL | 1.4 µg/mL | 2.5 µg/mL | Non-toxic | 2.5 µg/mL | 0.63 µg/mL | 0.4 µg/mL | 1.9 µg/mL | MFC (Nakaseomyces glabratus): 5 µg/mL; IC50 (Cryptococcus neoformans): 0.28 µg/mL; MFC (Pichia kudriavzevii): 2.5 µg/mL; MFC (Aspergillus fumigatus): 2.5 µg/mL; MIC (Aspergillus fumigatus): 2.5 µg/mL
